Source: BindingDB's records for doi:10.1002/cbic.200400099 (Technische UniversitÄT Braunschweig, 2005)

Assays:
Test in all cases: Kinase Assay
Details in all cases: pH 7.5; 30 °C
[1] = target: Cyclin-dependent kinase 1 (Homo sapiens, UniProt P06493)
Source text: (§1) Kinase activity assay using GSK-3beta, CDK1/cyclin B and CDK5/p25.

[2] = target: Cyclin-dependent kinase 5 (Homo sapiens, UniProt Q00535)
Source text: as §1

[3] = target: Glycogen synthase kinase-3 beta (Homo sapiens, UniProt P49841)
Chain of Glycogen synthase kinase-3 beta (P49841 whole entry): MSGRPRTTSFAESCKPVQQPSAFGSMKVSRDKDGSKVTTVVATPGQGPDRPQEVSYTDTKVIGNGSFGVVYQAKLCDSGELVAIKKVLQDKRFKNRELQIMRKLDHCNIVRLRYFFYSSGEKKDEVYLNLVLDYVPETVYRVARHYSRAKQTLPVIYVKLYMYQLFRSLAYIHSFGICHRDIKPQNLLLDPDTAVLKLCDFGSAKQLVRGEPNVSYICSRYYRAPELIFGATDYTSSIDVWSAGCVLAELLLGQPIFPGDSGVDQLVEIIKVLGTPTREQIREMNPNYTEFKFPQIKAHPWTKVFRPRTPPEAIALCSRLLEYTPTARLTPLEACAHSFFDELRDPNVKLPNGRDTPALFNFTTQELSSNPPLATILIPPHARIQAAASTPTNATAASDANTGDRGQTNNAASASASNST
Source text: as §1

Chain of Cyclin-dependent kinase 1 (P06493 whole entry): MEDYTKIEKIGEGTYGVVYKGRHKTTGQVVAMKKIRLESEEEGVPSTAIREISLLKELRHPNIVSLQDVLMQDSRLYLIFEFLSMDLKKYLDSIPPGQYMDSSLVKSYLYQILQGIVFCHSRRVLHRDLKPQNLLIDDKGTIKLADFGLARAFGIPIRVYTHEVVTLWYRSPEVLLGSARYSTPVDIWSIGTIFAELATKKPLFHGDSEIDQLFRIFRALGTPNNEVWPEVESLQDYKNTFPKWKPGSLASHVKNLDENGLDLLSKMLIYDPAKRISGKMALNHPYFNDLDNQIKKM
Chain of Cyclin-dependent kinase 5 (Q00535 whole entry): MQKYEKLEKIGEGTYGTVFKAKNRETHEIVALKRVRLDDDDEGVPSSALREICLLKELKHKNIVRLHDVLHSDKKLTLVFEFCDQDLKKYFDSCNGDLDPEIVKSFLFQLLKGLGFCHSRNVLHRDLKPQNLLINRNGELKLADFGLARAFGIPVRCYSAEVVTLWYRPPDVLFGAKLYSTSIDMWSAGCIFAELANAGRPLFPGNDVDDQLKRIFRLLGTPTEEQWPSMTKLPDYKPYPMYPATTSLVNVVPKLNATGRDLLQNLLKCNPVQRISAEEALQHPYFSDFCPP

Row | Compound | IC50 [1] | IC50 [2] | IC50 [3]
1 | N#CCCc1ccc2c(c1)-c1[nH]c3ccc([N+](=O)[O-])cc3c1CC(=O)N2 | 0.23 nM | 30 nM | 0.8 nM
2 | NCCCCc1ccc2c(c1)-c1[nH]c3ccc([N+](=O)[O-])cc3c1CC(=O)N2 [Alsterpaullone derivative, 3] | 80 nM | 70 nM | 6 nM
3 | NCCCc1ccc2c(c1)-c1[nH]c3ccc([N+](=O)[O-])cc3c1CC(=O)N2 [Alsterpaullone derivative, 4] | 27 nM | 23 nM | 2.5 nM
4 | O=C(O)CCc1ccc2c(c1)-c1[nH]c3ccc([N+](=O)[O-])cc3c1CC(=O)N2 [Alsterpaullone derivative, 5] | 25 nM | 80 nM | 6.5 nM
5 | COC(=O)CCc1ccc2c(c1)-c1[nH]c3ccc([N+](=O)[O-])cc3c1CC(=O)N2 [Alsterpaullone derivative, 6] | 100 nM | 250 nM | 34 nM
